For orientation: IC50 means the point on the concentration scale where inhibition reaches its midpoint. The low end stands for greater potency in that assay, the high end for weaker potency in that assay.

For one test, the target named is T1, Kv1.3 potassium channel (Homo sapiens, UniProt P22001).
T1 construct: expressed in transfected cells
Put plainly: Kv1.3 potassium channel blocker activity, automated whole-cell patch clamp (Patchliner). It is filed as cell-based. The procedure: This assay is used to evaluate the disclosed compounds' activities as Kv1.3 potassium channel blockers.
CHO-K1 cells stably expressing Kv1.3 were grown in DMEM containing 10% heat-inactivated FBS, 1 mM sodium pyruvate, 2 mM L-glutamine and G418 (500 μg/ml). Cells were grown in culture flasks at 37° C. in a 5% CO2-humidified incubator.
(§1) The cells were bathed in an extracellular solution containing 140 mM NaCl, 4 mM KCl, 2 mM CaCl2), 1 mM MgCl2, 5 mM glucose, and 10 mM HEPES; pH adjusted to 7.4 with NaOH; 295-305 mOsm. The internal solution contained 50 mM KCl, 10 mM NaCl, 60 mM KF, 20 mM EGTA, and 10 mM HEPES; pH adjusted to 7.2 with KOH; 285 mOsm. All compounds were dissolved in DMSO at 30 mM. Compound stock solutions were freshly diluted with external solution to concentrations of 30 nM, 100 nM, 300 nM, 1 μM, 3 μM, 10 μM, 30 μM and 100 μM. The highest content of DMSO (0.3%) was present in 100 μM.
The currents were evoked by applying 100 ms depolarizing pulses from −90 mV (holding potential) to +40 mV were applied with 0.1 Hz frequency. Control (compound-free) and compound pulse trains for each compound concentration applied contained 20 pulses.
10-second breaks were used between pulse trains (see Table 2 below).
Whole-cell current recordings and compound application were enabled by means of an automated patch clamp platform Patchliner (Nanion Technologies GmbH). EPC 10 patch clamp amplifier (HEKA Elektronik Dr. Schulze GmbH) along with Patchmaster software (HEKA Elektronik Dr. Schulze GmbH) was used for data acquisition. Data were sampled at 10 kHz without filtering. Passive leak currents were subtracted online using a P/4 procedure (HEKA Elektronik Dr. Schulze GmbH). Increasing compound concentrations were applied consecutively to the same cell without washouts in between. Total compound incubation time before the next pulse train was not longer than 10 seconds. Peak current inhibition was observed during compound equilibration.
(§2) AUC and peak values were obtained with Patchmaster (HEKA Elektronik Dr. Schulze GmbH). To determine IC50, the last single pulse in the pulse train corresponding to a given compound concentration was used. Obtained AUC and peak values in the presence of compound were normalized to control values in the absence of compound. Using Origin (OridinLab), IC50 was derived from data fit to Hill equation: Icompound/Icontrol=(100−A)/(1+([compound]/IC50)nH)+A, where IC50 value is the concentration at which current inhibition is half-maximal, [compound] is the applied compound concentration, A is the fraction of current that is not blocked and nH is the Hill coefficient.

For another test, the target named is T2, hERG channel (Homo sapiens, UniProt Q12809).
T2 construct: expressed in transfected cells
In words: hERG electrophysiology, automated whole-cell patch clamp (Patchliner). The format is cell-based. The procedure: This assay is used to evaluate the disclosed compounds' inhibition activities against the hERG channel.
CHO-K1 cells stably expressing hERG were grown in Ham's F-12 Medium with glutamine containing 10% heat-inactivated FBS, 1% penicillin/streptomycin, hygromycin (100 μg/ml) and G418 (100 μg/ml). Cells were grown in culture flasks at 37° C. in a 5% CO2-humidified incubator.
as §1
The voltage protocol (see Table 3) was designed to simulate voltage changes during a cardiac action potential with a 300 ms depolarization to +20 mV (analogous to the plateau phase of the cardiac action potential), a repolarization for 300 ms to −50 mV (inducing a tail current) and a final step to the holding potential of −80 mV. The pulse frequency was 0.3 Hz. Control (compound-free) and compound pulse trains for each compound concentration applied contained 70 pulses.
Whole-cell current recordings and compound application were enabled by means of an automated patch clamp platform Patchliner (Nanion). EPC 10 patch clamp amplifier (HEKA) along with Patchmaster software (HEKA Elektronik Dr. Schulze GmbH) was used for data acquisition. Data were sampled at 10 kHz without filtering. Increasing compound concentrations were applied consecutively to the same cell without washouts in between.
as §2, with “PEAK” for “peak”, “IC50” for “IC50,”, “Icompound/Icontrol=(100-A)/(1+([compound]/IC50)nH)+A,” for “Icompound/Icontrol=(100−A)/(1+([compound]/IC50)nH)+A,”, “IC50” for “IC50 value”

Where [1] appears, read: Kv1.3 potassium channel, whole-cell patch clamp.
The mark [2] stands for this setting: hERG channel, whole-cell patch clamp.
[3] abbreviates: CHO-K1 cells stably expressing Kv1.3, 100 ms pulses from -90 mV to +40 mV, 0.1 Hz.
The mark [4] stands for this setting: CHO-K1 cells stably expressing hERG, +20 mV 300 ms, -50 mV 300 ms tail current, 0.3 Hz.

The structures appear in SMILES notation.

T2 sequence (Q12809 whole entry): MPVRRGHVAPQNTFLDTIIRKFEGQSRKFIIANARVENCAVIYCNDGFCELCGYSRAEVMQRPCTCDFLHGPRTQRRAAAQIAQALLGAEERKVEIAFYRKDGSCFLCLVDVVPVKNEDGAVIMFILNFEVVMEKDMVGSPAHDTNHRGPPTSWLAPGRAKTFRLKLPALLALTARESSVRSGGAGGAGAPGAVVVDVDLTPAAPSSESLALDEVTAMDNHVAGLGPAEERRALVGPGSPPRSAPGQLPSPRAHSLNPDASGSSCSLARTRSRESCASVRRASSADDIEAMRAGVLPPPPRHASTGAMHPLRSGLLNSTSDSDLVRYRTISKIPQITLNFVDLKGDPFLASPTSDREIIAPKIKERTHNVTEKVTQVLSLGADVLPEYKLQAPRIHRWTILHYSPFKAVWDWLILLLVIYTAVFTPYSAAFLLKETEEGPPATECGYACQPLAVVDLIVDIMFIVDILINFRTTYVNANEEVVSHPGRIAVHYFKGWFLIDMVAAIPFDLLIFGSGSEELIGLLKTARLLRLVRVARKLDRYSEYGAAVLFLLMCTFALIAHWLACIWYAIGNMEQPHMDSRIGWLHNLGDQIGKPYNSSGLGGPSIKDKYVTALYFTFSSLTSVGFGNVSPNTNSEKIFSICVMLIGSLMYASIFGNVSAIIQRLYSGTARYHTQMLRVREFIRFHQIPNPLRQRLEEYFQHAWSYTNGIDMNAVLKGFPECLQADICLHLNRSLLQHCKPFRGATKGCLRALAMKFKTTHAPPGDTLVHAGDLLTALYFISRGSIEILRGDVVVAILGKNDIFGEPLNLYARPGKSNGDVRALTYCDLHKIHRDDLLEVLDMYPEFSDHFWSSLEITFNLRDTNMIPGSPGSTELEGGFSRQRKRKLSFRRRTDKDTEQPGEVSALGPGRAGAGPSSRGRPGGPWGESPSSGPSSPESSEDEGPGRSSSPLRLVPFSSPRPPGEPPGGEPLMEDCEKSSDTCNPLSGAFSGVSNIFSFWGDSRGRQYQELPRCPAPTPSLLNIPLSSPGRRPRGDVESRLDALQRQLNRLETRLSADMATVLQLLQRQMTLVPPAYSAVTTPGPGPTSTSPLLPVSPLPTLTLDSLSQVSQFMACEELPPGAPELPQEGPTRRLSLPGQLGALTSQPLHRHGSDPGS
T1 sequence (P22001 whole entry): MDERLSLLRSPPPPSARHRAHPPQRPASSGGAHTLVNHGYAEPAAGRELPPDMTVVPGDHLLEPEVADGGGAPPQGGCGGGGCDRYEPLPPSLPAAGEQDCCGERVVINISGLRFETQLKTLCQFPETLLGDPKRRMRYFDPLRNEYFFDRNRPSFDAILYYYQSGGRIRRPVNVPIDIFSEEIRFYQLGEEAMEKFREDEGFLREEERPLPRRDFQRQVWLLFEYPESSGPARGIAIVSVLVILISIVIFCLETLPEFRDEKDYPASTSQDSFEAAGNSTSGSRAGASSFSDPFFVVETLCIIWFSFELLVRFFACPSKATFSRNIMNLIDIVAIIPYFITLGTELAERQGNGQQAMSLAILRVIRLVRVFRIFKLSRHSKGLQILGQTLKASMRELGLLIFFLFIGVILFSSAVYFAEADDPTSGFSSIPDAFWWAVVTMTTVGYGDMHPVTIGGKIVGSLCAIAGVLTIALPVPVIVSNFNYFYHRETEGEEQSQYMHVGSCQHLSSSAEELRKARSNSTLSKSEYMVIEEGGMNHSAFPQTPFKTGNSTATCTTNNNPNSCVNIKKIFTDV

As for `O=C1O[C@@H](CN2CCNCC2)[C@@H]2C[C@H](c3c(O)ccc(Cl)c3Cl)CN12` (single isomer, unassigned) [Compound 279], the IC50 is less than 1000 nM against Kv1.3 potassium channel (setting [1]) and less than 30 µM against hERG channel (setting [2]).

Consider `O=C1C[C@H](N2CC[C@@H](O)C2)C[C@@H]2C[C@H](c3c(O)ccc(Cl)c3Cl)CN12` (single isomer, unassigned) [Compound 191], for which the half-maximal inhibitory concentration (IC50) against Kv1.3 potassium channel (setting [1]) was less than 1000 nM; against hERG channel (setting [2]) it was less than 30 µM.

With `CC1[C@@H]2C[C@H](c3c(O)ccc(Cl)c3Cl)CCN2C(=O)CN1C(=O)CO` (stereo partly drawn) [Compound 25, (8R,9aS)-8-(2,3-dichloro-6-hydroxypheny1)-2-(2-hydroxyacetyl)-1-methyl-hexahydro-1H-pyrido[1,2-a]pyrazin-4-one], the results for the IC50 at Kv1.3 potassium channel (setting [3]) and on hERG channel (setting [4]) were less than 1000 nM and more than 30 µM, respectively.

Consider `C[C@H](O)[C@H]1OC(=O)N2C[C@@H](c3c(O)ccc(Cl)c3Cl)C[C@@H]12` (single isomer, unassigned) [Compound 258], for which the IC50 against Kv1.3 potassium channel (setting [1]) is less than 1000 nM; at hERG channel (setting [2]), more than 30 µM.

Turning to `O=C([C@@H](O)CO)N1CC(=O)N2C[C@@H](c3c(O)ccc(Cl)c3Cl)C[C@H]2C1` [Compound 34, (7R,8aS)-7-(2,3-dichloro-6-hydroxyphenyl)-2-[(2S)-2,3-dihydroxypropanoyl]-hexahydropyrrolo [1,2-a]pyrazin-4-one], the IC50 against Kv1.3 potassium channel (setting [3]) is less than 1000 nM; against hERG channel (setting [4]) it was more than 30 µM.

On to `O=C1C[C@@H](NCCO)C[C@@H]2C[C@H](c3c(O)ccc(Cl)c3Cl)CN12` (single isomer, unassigned) [Compound 202], for which the IC50 on Kv1.3 potassium channel (setting [1]) is less than 1000 nM; at hERG channel (setting [2]) it was more than 30 µM.

Consider `COC[C@@H](O)C(=O)N1CC(=O)N2CC[C@@H](c3c(O)ccc(Cl)c3Cl)C[C@H]2C1` [Compound 4, (8R,9aS)-8-(2,3-dichloro-6-hydroxyphenyl)-2-[(2R)-2-hydroxy-3-methoxypropanoyl]-hexahydro-1H-pyrido[1,2-a]pyrazin-4-one], for which the half-inhibitory concentration (IC50) at Kv1.3 potassium channel (setting [3]) was less than 1000 nM; at hERG channel (setting [4]) it was more than 30 µM.

In the case of `O=C1CCC[C@@H]2C[C@H](c3c(O)ccc(Cl)c3Cl)CN12` [Compound 223, (2R,8aR)-2-(2,3-dichloro-6-hydroxyphenyl)-hexahydro-1H-indolizin-5-one], the values for the IC50 at Kv1.3 potassium channel (setting [1]) and at hERG channel (setting [2]) were less than 1000 nM and more than 30 µM, respectively.

For `C[C@H](O)CN1CC(=O)N2C[C@@H](c3c(O)ccc(Cl)c3Cl)C[C@H]2C1` (single isomer, unassigned; isomer 2) [Compound 151], the IC50 is less than 1000 nM on Kv1.3 potassium channel (setting [1]) and more than 30 µM against hERG channel (setting [2]).

On to `N[C@@H]1CC(=O)N2C[C@@H](c3c(O)ccc(Cl)c3Cl)C[C@H]2C1` (single isomer, unassigned) [Compound 190], for which the IC50 at Kv1.3 potassium channel (setting [1]) is less than 1000 nM; against hERG channel (setting [2]), more than 30 µM.

`O=C(C[C@@H](O)C1CC1)N1CC(=O)N2C[C@@H](c3c(O)ccc(Cl)c3Cl)C[C@H]2C1` [Compound 72, (7R,8aS)-2-[(3R)-3-cyclopropyl-3-hydroxypropanoyl]-7-(2,3-dichloro-6-hydroxyphenyl)-hexahydropyrrolo [1,2-a]pyrazin-4-one]: the IC50 was less than 1000 nM on Kv1.3 potassium channel (setting [1]) and less than 30 µM on hERG channel (setting [2]).

`CN(C)[C@H]1CC(=O)N2C[C@@H](c3c(O)ccc(Cl)c3Cl)C[C@H]2C1` (single isomer, unassigned) [Compound 201]: the concentration for half-maximal inhibition (IC50) against Kv1.3 potassium channel (setting [1]) was less than 1000 nM; against hERG channel (setting [2]), less than 10 µM.

Regarding `O=C([C@@H](O)CO)N1CC(=O)N2CC[C@H](c3c(O)ccc(Cl)c3Cl)C[C@@H]2C1` [Compound 64, (8S,9aR)-8-(2,3-dichloro-6-hydroxyphenyl)-2-[(2S)-2,3-dihydroxy-propanoyl]-hexahydro-1H-pyrido[1,2-a]pyrazin-4-one], the IC50 is less than 1000 nM on Kv1.3 potassium channel (setting [1]) and more than 30 µM against hERG channel (setting [2]).

As to `C[C@@H]1NC[C@@H]2C[C@H](c3c(O)ccc(Cl)c3Cl)CN2C1=O` [Compound 85, (3S,7R,8aS)-7-(2,3-dichloro-6-hydroxyphenyl)-3-methyl-hexahydro-1H-pyrrolo[1,2-a]pyrazin-4-one], the IC50 at Kv1.3 potassium channel (setting [1]) was less than 1000 nM; on hERG channel (setting [2]), less than 30 µM.

With `O=C1CC(N2CCNCC2)C[C@@H]2C[C@H](c3c(O)ccc(Cl)c3Cl)CN12` (single isomer, unassigned) [Compound 207], the IC50 against Kv1.3 potassium channel (setting [1]) is less than 1000 nM; at hERG channel (setting [2]), more than 30 µM.

In the case of `N#CCC(=O)N1CC(=O)N2C[C@@H](c3c(O)ccc(Cl)c3Cl)C[C@H]2C1` [Compound 41, 3-[(7R,8aS)-7-(2,3-dichloro-6-hydroxypheny1)-4-oxo-hexahydropyrrolo[1,2-a]pyrazin-2-yl]-3-oxopropanenitrile], the IC50 was less than 1000 nM at Kv1.3 potassium channel (setting [3]) and more than 30 µM on hERG channel (setting [4]).

Regarding `O=C(NC1CNC1)[C@@H]1CC(=O)N2C[C@@H](c3c(O)ccc(Cl)c3Cl)C[C@H]2C1` (single isomer, unassigned) [Compound 236], the IC50 against Kv1.3 potassium channel (setting [1]) is less than 1000 nM; against hERG channel (setting [2]) it was more than 30 µM.

As for `O=C1CN(CCO)C[C@@H]2C[C@H](c3c(O)ccc(Cl)c3Cl)CN12` [Compound 2, (7R,8aS)-7-(2,3-dichloro-6-hydroxyphenyl)-2-(2-hydroxyethyl)-hexahydropyrrolo[1,2-a]pyrazin-4-one], the IC50 against Kv1.3 potassium channel (setting [3]) was less than 1000 nM; on hERG channel (setting [4]), more than 30 µM.

On to `O=C1NC[C@@H]2C[C@H](c3c(O)ccc(Cl)c3Cl)CN12` [Compound 293, (6R,7aS)-6-(2,3-dichloro-6-hydroxyphenyl)-hexahydropyrrolo[1,2-c]imidazol-3-one], for which the half-inhibitory concentration (IC50) is less than 1000 nM against Kv1.3 potassium channel (setting [1]) and more than 30 µM on hERG channel (setting [2]).

For `C[C@@H](O)[C@@H](CO)N1CC(=O)N2C[C@@H](c3c(O)ccc(Cl)c3Cl)C[C@H]2C1` (relative stereo) [Compound 166, (7R,8aS)-7-(2,3-dichloro-6-hydroxyphenyl)-2-[(2R,3R)-rel-1,3-dihydroxybutan-2-yl]-hexahydropyrrolo[1,2-a]pyrazin-4-one], the concentration for half-maximal inhibition (IC50) was less than 1000 nM against Kv1.3 potassium channel (setting [1]) and more than 30 µM against hERG channel (setting [2]).

Consider `NC[C@H]1OC(=O)N2C[C@@H](c3c(O)ccc(Cl)c3Cl)C[C@@H]12` (single isomer, unassigned) [Compound 273], for which the IC50 on Kv1.3 potassium channel (setting [1]) is less than 1000 nM; at hERG channel (setting [2]) it was more than 30 µM.

As to `O=C(NCCO)[C@@H]1CC(=O)N2C[C@@H](c3c(O)ccc(Cl)c3Cl)C[C@H]2C1` (single isomer, unassigned) [Compound 234], the concentration for half-maximal inhibition (IC50) was less than 1000 nM at Kv1.3 potassium channel (setting [1]) and more than 30 µM against hERG channel (setting [2]).

Consider `C[C@H]1CN(C(=O)CO)C[C@@H]2C[C@H](c3c(O)ccc(Cl)c3Cl)CN2C1=O` (single isomer, unassigned; isomer 2) [Compound 92], for which the half-maximal inhibitory concentration (IC50) against Kv1.3 potassium channel (setting [1]) was less than 1000 nM; on hERG channel (setting [2]), more than 30 µM.

Regarding `CC(C)(O)CN1CC(=O)N2C[C@@H](c3c(O)ccc(Cl)c3Cl)C[C@H]2C1` [Compound 148, (7R,8aS)-7-(2,3-dichloro-6-hydroxyphenyl)-2-(2-hydroxy-2-methylpropyl)-hexahydropyrrolo[1,2-a]pyrazin-4-one], the figures for the IC50 on Kv1.3 potassium channel (setting [1]) and against hERG channel (setting [2]) were less than 1000 nM and more than 30 µM, respectively.

Source of the values: patent publication US20230049231A1 (priority 2019, published 2023).
